Patent publication US20240383870A1, “HETEROCYCLIC ALDEHYDE TRAPPING COMPOUNDS AND USES THEREOF” (Aldeyra Therapeutics, Inc., priority 2021, published 2024)

Legend:
Format in all cases: in vivo
IL-9 = test: Acute LPS-induced sepsis in C57BL/6 mice: IL-9 cytokine detection assay; details: 125 mpk PO; LPS-challenged mice, plasma at 6.5 h; unpaired t-test vs vehicle
From the text: FIG. 13 is a graph showing the results of an IL-9 cytokine detection assay in samples collected from mouse subjects after administration of compounds of the present disclosure.
(§1) The primary objective of this study was to collect plasma samples of lipopolysaccharide (LPS) challenged C57BL/6 mice after dose of test compounds to provide a cytokine profile as impacted by prophylactic treatments. This study models acute sepsis, which is a systemic inflammatory syndrome initiated by Gram-negative and Gram-positive bacteria and fungi which infect the lungs, abdomen, bloodstream, and renal or genitourinary tracts. Sepsis patients ultimately die of multiorgan failure which is caused by extensive tissue hypo-oxygenation due to ongoing microvascular leakage, disseminated intravascular coagulation, compromised energy production, and metabolic alterations. Sepsis is characterized by an early systemic inflammatory response phase featuring symptoms, such as tachycardia, fever, hyperventilation, and activation of the complement and coagulation cascades. However, it is now appreciated that a compensatory anti-inflammatory response phase follows, characterized by neuroendocrine-mediated immunosuppression. Since these processes are the result of interaction between cells of inflammation and organs, investigation of the treatment of this syndrome requires the use of intact animal models. The use of ten mice per group allows useful statistical modelling of the results.
(§2) For the data shown in Table 2A, 103 mice (female, 18-22 gram, C57BL/6) were purchased from ENVIGO. The mice were housed in 20 cages of 5 mice per cage with 1 cage of 3 mice as extra. The cages had filter tops and autoclaved bedding, and the animals were placed in quarantine with daily inspection. The treatment groups are detailed in Table 2A below. 10 mice were included in each group. The mice were dosed by oral gavage (PO) at 10 ml/kg as per the table below. MC=methyl cellulose. […]
(§3) A 32-plex cytokine panel was obtained from Eve Technologies. Each cytokine was assessed based against a 7 point curve range in duplicate. […]

IL-10 = test: Acute LPS-induced sepsis in C57BL/6 mice: IL-10 cytokine detection assay; details: LPS-challenged mice, plasma at 6.5 h, unpaired t-test vs vehicle
IL-12(p70) = test: Acute LPS-induced sepsis in C57BL/6 mice: IL-12(p70) cytokine detection assay; details: LPS-challenged mice, plasma at 6.5 h, unpaired t-test vs vehicle
From the text: FIG. 16 is a graph showing the results of an IL-12(p70) cytokine detection assay in samples collected from mouse subjects after administration of compounds of the present disclosure.
as §1
(§4) For the data shown in Table 2A, 103 mice (female, 18-22 gram, C57BL/6) were purchased from ENVIGO. The mice were housed in 20 cages of 5 mice per cage with 1 cage of 3 mice as extra. The cages had filter tops and autoclaved bedding, and the animals were placed in quarantine with daily inspection. The treatment groups are detailed in Table 2A below. 10 mice were included in each group. […] MC=methyl cellulose.
(§5) For the data shown in Table 2B, 185 mice (female, 18-22 gram, C57BL/6) were purchased from ENVIGO. The mice were housed in 37 cages of 5 mice per cage. The cages had filter tops and autoclaved bedding, and the animals were placed in quarantine with daily inspection. The treatment groups are detailed in Table 2B below. 10 mice were included in each group. The mice were dosed by oral gavage (P0) at 10 ml/kg as per the table below. MC=methyl cellulose.
(§6) At T=0 h, the mice were dosed with one of the test compounds as described in the above table.
(§7) At T=0.5 h, the mice were injected IP with 1.5 mg/kg […] (Sigma).
(§8) At T=6.5 h, all mice were anesthetized and exsanguinated into pre-chilled EDTA-treated tubes. The blood was processed to plasma which was stored in labeled 0.5 polypropylene snap-cap tubes (0.5 mL Eppendorf Safe-Lock Tubes (Fisher Scientific) at −80° C.
(§9) Preparation of vehicle: 1.0 gram of methyl cellulose (Sigma) was dissolved in 200 mL of water (USP purified) to make a solution of 0.5% methyl cellulose in water. Preparation of LPS solution: 6 mg of LPS (from Escherichia Coli 055:B5, Cat #L2880, Sigma Lot #057m4013) was dissolved in 20 ml of saline to give a LPS solution of 0.3 mg/ml. All mice were injected with 5 ml/kg (1.5 mg/kg) at the scheduled time by intraperitoneal injection.
A 32-plex cytokine panel was obtained from Eve Technologies. Each cytokine was assessed based against a 7 point curve range in duplicate. The average of the two replicate analyses was used for statistics. Unpaired t-tests were performed using Excel™ contrasting vehicle against each treatment group. One star indicates P<0.05. […]

IL-13 = test: Acute LPS-induced sepsis in C57BL/6 mice: IL-13 cytokine detection assay; details: LPS-challenged mice, plasma at 6.5 h, unpaired t-test vs vehicle
From the text: FIG. 17 is a graph showing the results of an IL-13 cytokine detection assay in samples collected from mouse subjects after administration of compounds of the present disclosure.
as §1
(§10) For the data shown in Table 2A, 103 mice (female, 18-22 gram, C57BL/6) were purchased from ENVIGO. The mice were housed in 20 cages of 5 mice per cage with 1 cage of 3 mice as extra. The cages had filter tops and autoclaved bedding, and the animals were placed in quarantine with daily inspection. The treatment groups are detailed in Table 2A below. 10 mice were included in each group. The mice were dosed by oral gavage (PO) at 10 ml/kg as per the table below. MC=methyl cellulose.
as §5, §6, §7, §8, §9
A 32-plex cytokine panel was obtained from Eve Technologies. Each cytokine was assessed based against a 7 point curve range in duplicate. The average of the two replicate analyses was used for statistics. […]

KC = test: Acute LPS-induced sepsis in C57BL/6 mice: KC cytokine detection assay; details: 200 mpk PO; LPS-challenged mice, plasma at 6.5 h; unpaired t-test vs vehicle
From the text: FIG. 20 is a graph showing the results of a KC cytokine detection assay in samples collected from mouse subjects after administration of compounds of the present disclosure.
as §1, §10, §5, §6, §7, §8, §9
(§11) A 32-plex cytokine panel was obtained from Eve Technologies. Each cytokine was assessed based against a 7 point curve range in duplicate. The average of the two replicate analyses was used for statistics. Unpaired t-tests were performed using Excel™ contrasting vehicle against each treatment group. One star indicates P<0.05. Two stars indicates P<0.01. Three stars indicates P<0.001. Four stars indicates P<0.0001. Most, but not all, statistically significant results are indicated with star(s).

MCP-1(CCL2) = test: Acute LPS-induced sepsis in C57BL/6 mice: MCP-1(CCL2) cytokine detection assay; details: 200 mpk PO; LPS-challenged mice, plasma at 6.5 h; unpaired t-test vs vehicle
IL-3 = test: Acute LPS-induced sepsis in C57BL/6 mice: IL-3 cytokine detection assay; details: 200 mpk PO; LPS-challenged mice, plasma at 6.5 h; unpaired t-test vs vehicle
M-CSF (CSF1) = test: Acute LPS-induced sepsis in C57BL/6 mice: M-CSF (CSF1) cytokine detection assay; details: LPS-challenged mice, plasma at 6.5 h, unpaired t-test vs vehicle
From the text: FIG. 24 is a graph showing the results of an M-CSF (CSF1) cytokine detection assay in samples collected from mouse subjects after administration of compounds of the present disclosure. M-CSF causes hematopoietic stem cells to differentiate into macrophages.
as §1, §10, §5, §6, §7, §8, §9, §11

IFNγ = test: Acute LPS-induced sepsis in C57BL/6 mice: IFNγ cytokine detection assay; details: 75 mpk PO; LPS-challenged mice, plasma at 6.5 h; unpaired t-test vs vehicle
IL-17 = test: Acute LPS-induced sepsis in C57BL/6 mice: IL-17 cytokine detection assay; details: LPS-challenged mice, plasma at 6.5 h, unpaired t-test vs vehicle
From the text: FIG. 19 is a graph showing the results of an IL-17 cytokine detection assay in samples collected from mouse subjects after administration of compounds of the present disclosure.
as §1, §4, §5, §6, §7
(§12) At T=6.5 h, all mice were anesthetized and exsanguinated into pre-chilled EDTA-treated tubes. […]
as §3

[1] = test system: leukemia inhibitory factor (LIF); test: Acute LPS-induced sepsis in C57BL/6 mice: leukemia inhibitory factor (LIF) cytokine detection assay; details: LPS-challenged mice, plasma at 6.5 h, unpaired t-test vs vehicle
From the text: FIG. 21 is a graph showing the results of a leukemia inhibitory factor (LIF) cytokine detection assay in samples collected from mouse subjects after administration of compounds of the present disclosure. LIF is an interleukin 6 class cytokine that affects cell growth by inhibiting differentiation.
as §1, §10, §5, §6, §7, §8, §9, §3

eotaxin = test: Acute LPS-induced sepsis in C57BL/6 mice: eotaxin cytokine detection assay; details: 200 mpk PO; LPS-challenged mice, plasma at 6.5 h; unpaired t-test vs vehicle
IL-6 = test: Acute LPS-induced sepsis in C57BL/6 mice: IL-6 cytokine detection assay; details: 200 mpk PO; LPS-challenged mice, plasma at 6.5 h; unpaired t-test vs vehicle
From the text: FIG. 11 is a graph showing the results of an IL-6 cytokine detection assay in samples collected from mouse subjects after administration of compounds of the present disclosure.
as §1, §10, §5, §6, §7, §12, §3

IL-7 = test: Acute LPS-induced sepsis in C57BL/6 mice: IL-7 cytokine detection assay; details: 200 mpk PO; LPS-challenged mice, plasma at 6.5 h; unpaired t-test vs vehicle
IL-15 = test: Acute LPS-induced sepsis in C57BL/6 mice: IL-15 cytokine detection assay; details: 200 mpk PO; LPS-challenged mice, plasma at 6.5 h; unpaired t-test vs vehicle
MIP2(CXCL2) = test: Acute LPS-induced sepsis in C57BL/6 mice: MIP2(CXCL2) cytokine detection assay; details: 200 mpk PO; LPS-challenged mice, plasma at 6.5 h; unpaired t-test vs vehicle
From the text: FIG. 27 is a graph showing the results of a MIP2(CXCL2) cytokine detection assay in samples collected from mouse subjects after administration of compounds of the present disclosure.
as §1, §4, §5, §6, §7, §12, §3

TNFα = test: Acute LPS-induced sepsis in C57BL/6 mice: TNFα cytokine detection assay; details: 200 mpk PO; LPS-challenged mice, plasma at 6.5 h; unpaired t-test vs vehicle
From the text: FIG. 29 is a graph showing the results of a TNFα cytokine detection assay in samples collected from mouse subjects after administration of compounds of the present disclosure.
as §1, §2, §3

SMILES: CC(C)(O)c1cc2c(cc1N)OCCO2 [Compound I-26, 2-(7-Amino-2,3-dihydrobenzo[b] [1,4]dioxin-6-yl) propan-2-ol]
- IL-9: significant cytokine change vs. vehicle (IL-9): * (One star indicates P<0.05)

SMILES: CC(C)(O)c1cc(Cl)c(Cl)cc1N [Compound I-28, 2-(2-Amino-4,5-dichlorophenyl) propan-2-ol]
- IL-10: significant cytokine change vs. vehicle (IL-10; 200 mpk PO): * (One star indicates P<0.05)
- IL-12 (p70): significant cytokine change vs. vehicle (IL-12(p70); 200 mpk PO): * (One star indicates P<0.05)
- IL-13: significant cytokine change vs. vehicle (IL-13; 200 mpk PO): * (One star indicates P<0.05)
- KC: significant cytokine change vs. vehicle (KC): *** (Three stars indicates P<0.001)
- MCP-1: significant cytokine change vs. vehicle (MCP-1(CCL2)): * (One star indicates P<0.05)

SMILES: CC(O)(c1sc2ccc(C(F)(F)F)cc2c1N)C(F)(F)F (stereo not shown) [Compound I-16, 2-(3-Amino-5-(trifluoromethyl)benzo[b]thiophen-2-yl)-1,1,1-trifluoropropan-2-ol]
- IL-3: significant cytokine change vs. vehicle (IL-3): * (One star indicates P<0.05)
- IL-10: significant cytokine change vs. vehicle (IL-10; 200 mpk PO): ** (Two stars indicates P<0.01)
- MCP-1: significant cytokine change vs. vehicle (MCP-1(CCL2)): * (One star indicates P<0.05)
- M-CSF: significant cytokine change vs. vehicle (M-CSF (CSF1); 200 mpk PO): **** (Four stars indicates P<0.0001)

SMILES: Cc1cnc(C(C)(C)O)c(N)c1 [Compound I-32, 2-(3-Amino-5-methylpyridin-2-yl) propan-2-ol]
- IFNy: significant cytokine change vs. vehicle (IFNγ): **** (Four stars indicates P<0.0001)
- IL-10: significant cytokine change vs. vehicle (IL-10; 75 mpk PO): * (One star indicates P<0.05)
- IL-12 (p70): significant cytokine change vs. vehicle (IL-12(p70); 75 mpk PO): * (One star indicates P<0.05)
- IL-13: significant cytokine change vs. vehicle (IL-13; 75 mpk PO): *** (Three stars indicates P<0.001)
- IL-17: significant cytokine change vs. vehicle (IL-17; 75 mpk PO): * (One star indicates P<0.05)
- LIF: significant cytokine change vs. vehicle ([1]; 75 mpk PO): **** (Four stars indicates P<0.0001)
- M-CSF: significant cytokine change vs. vehicle (M-CSF (CSF1); 75 mpk PO): **** (Four stars indicates P<0.0001)

SMILES: CC(O)(c1sc2cccc(Br)c2c1N)C(F)(F)F (stereo not shown) [Compound I-2, 2-(3-amino-4-bromobenzo[b]thiophen-2-yl)-1,1,1-trifluoropropan-2-ol]
- Eotaxin: significant cytokine change vs. vehicle (eotaxin): ** (Two stars indicates P<0.01)
- IL-6: significant cytokine change vs. vehicle (IL-6): **** (Four stars indicates P<0.0001)
- IL-7: significant cytokine change vs. vehicle (IL-7): ** (Two stars indicates P<0.01)
- IL-13: significant cytokine change vs. vehicle (IL-13; 200 mpk PO): **** (Four stars indicates P<0.0001)
- IL-15: significant cytokine change vs. vehicle (IL-15): ** (Two stars indicates P<0.01)
- IL-17: significant cytokine change vs. vehicle (IL-17; 200 mpk PO): *** (Three stars indicates P<0.001)
- KC: significant cytokine change vs. vehicle (KC): *** (Three stars indicates P<0.001)
- LIF: significant cytokine change vs. vehicle ([1]; 200 mpk PO): ** (Two stars indicates P<0.01)
- MCP-1: significant cytokine change vs. vehicle (MCP-1(CCL2)): *** (Three stars indicates P<0.001)
- MIP-2: significant cytokine change vs. vehicle (MIP2(CXCL2)): *** (Three stars indicates P<0.001)
- TNFa: significant cytokine change vs. vehicle (TNFα): **** (Four stars indicates P<0.0001)
